Here are results for four compounds from PubChem BioAssay AID1918948 (Molecular Pharmacology Branch, DTP, NCI, 2023).

The assay has as its system K-562 leukemia growth, % test/control. As to the kind of experiment: Anticancer human tumor K-562 cell line growth inhibition.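 On all read-outs here: spheroids exposed to compounds for 7 days.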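 On viability, T/C: 100% = DMSO vehicle wells and lower values mean fewer viable cells.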 To be noted: spheroids with HUVEC and MSC; for viability, T/C: stronger effect = lower value. In a few lines: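 Drug combinations with the LSD1 inhibitor iadademstat tested on tumor cells co-cultured as spheroids with endothelial cells and mesenchymal stem cells. Concentrations descended in half-log increments from clinical Cmax or 10 microM.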

[1] abbreviates: curve of first compound, second compound 0.1 µM.
[2] abbreviates: curve of first compound, second compound 0.316 µM.
Where [3] appears, read: curve of first compound, second compound 1 µM.
Setting [4] is: curve of first compound, second compound 3.16 µM.
Setting [5] is: curve of first compound, second compound 10 µM.

pIC50: −log10 of the molar value. Values joined by “and” are separate entries in the source; they are usually repeats but may differ in a detail not shown here. Identical values can stand only once.

As for `O=C(C=Cn1cnc(-c2cc(C(F)(F)F)cc(C(F)(F)F)c2)n1)NNc1cnccn1`, the viability, T/C was 102% and 101% (compound 0.00316 µM); 103% (compound 0.01 µM); 92.1% and 101% (compound 0.0316 µM); 37.1% and 58.4% (compound 0.1 µM); 4.12% and 9.78% (compound 0.316 µM); 1.22% and 1.15% (compound 1 µM). In addition, for the setting “curve of compound”, the pIC50 was 7.12 and 6.91.

With `COc1cc(Nc2ncc3c(n2)-c2ccc(Cl)cc2C(c2c(F)cccc2OC)=NC3)ccc1C(=O)O` + NC1CC1c1ccc(-c2cccc(O)c2)cc1, the pIC50 under setting [1] was over 8.50; the pIC50 under setting [2] is over 8.50; the pIC50 under setting [3] was over 8.50; the pIC50 under setting [4] is over 8.50; the pIC50 under setting [5] was over 8.50. The viability, T/C (second compound 0.1 µM, first compound 0.00316 µM) is 31.1%; the viability, T/C (second compound 0.1 µM, first compound 0.01 µM) is 35.4%; the viability, T/C (second compound 0.1 µM, first compound 0.0316 µM) was 35.4%; the viability, T/C (second compound 0.1 µM, first compound 0.1 µM) was 27.7%; the viability, T/C (second compound 0.1 µM, first compound 0.316 µM) was 11.1%; the viability, T/C (second compound 0.1 µM, first compound 1 µM) was 5.75%. Further, the viability, T/C is 22.8% (second compound 0.316 µM, first compound 0.00316 µM); 27.5% (second compound 0.316 µM, first compound 0.01 µM); 27.8% (second compound 0.316 µM, first compound 0.0316 µM); 18.3% (second compound 0.316 µM, first compound 0.1 µM); 8.22% (second compound 0.316 µM, first compound 0.316 µM); 4.56% (second compound 0.316 µM, first compound 1 µM). Besides, the viability, T/C (second compound 1 µM, first compound 0.00316 µM) was 20.2%; the viability, T/C (second compound 1 µM, first compound 0.01 µM) is 24.4%; the viability, T/C (second compound 1 µM, first compound 0.0316 µM) is 22.4%; the viability, T/C (second compound 1 µM, first compound 0.1 µM) is 13.9%; the viability, T/C (second compound 1 µM, first compound 0.316 µM) was 6.56%; the viability, T/C (second compound 1 µM, first compound 1 µM) was 4.05%. Also, the viability, T/C was 15.5% (second compound 3.16 µM, first compound 0.00316 µM); 21% (second compound 3.16 µM, first compound 0.01 µM); 21.4% (second compound 3.16 µM, first compound 0.0316 µM); 14% (second compound 3.16 µM, first compound 0.1 µM); 6.72% (second compound 3.16 µM, first compound 0.316 µM); 4.65% (second compound 3.16 µM, first compound 1 µM). In addition, the viability, T/C runs as follows: (second compound 10 µM, first compound 0.00316 µM) 10%; (second compound 10 µM, first compound 0.01 µM) 16.6%; (second compound 10 µM, first compound 0.0316 µM) 20.3%; (second compound 10 µM, first compound 0.1 µM) 11.9%; (second compound 10 µM, first compound 0.316 µM) 6.15%; (second compound 10 µM, first compound 1 µM) 3.42%.

Regarding `CC[C@@]1(O)C(=O)OCc2c1cc1n(c2=O)Cc2cc3c(CN(C)C)c(O)ccc3nc2-1`, the viability, T/C is 98.4% and 100% (compound 0.000316 µM); 71.1% and 99.8% (compound 0.001 µM); 34.6% and 58.8% (compound 0.00316 µM); 32.6% and 50.7% (compound 0.01 µM); 20.8% and 24.8% (compound 0.0316 µM); 11.2% (compound 0.1 µM). Also, under “curve of compound”, the pIC50 was 8.65 and 8.10.

Consider `Nc1ccccc1NC(=O)c1ccc(CNC(=O)OCc2cccnc2)cc1` + NC1CCC(NC2CC2c2ccccc2)CC1, for which the negative logarithm of the IC50 (pIC50) under setting [1] is 6.56; the negative-log IC50 (pIC50) under setting [2] is 6.49; the pIC50 under setting [3] was 6.55; the pIC50 under setting [4] was 6.65; the negative logarithm of the IC50 (pIC50) under setting [5] is 7.12. The viability, T/C (second compound 0.1 µM, first compound 0.00949 µM) is 106%; the viability, T/C (second compound 0.1 µM, first compound 0.03 µM) was 106%; the viability, T/C (second compound 0.1 µM, first compound 0.0949 µM) is 103%; the viability, T/C (second compound 0.1 µM, first compound 0.3 µM) is 45.5%; the viability, T/C (second compound 0.1 µM, first compound 0.949 µM) is 3.36%; the viability, T/C (second compound 0.1 µM, first compound 3 µM) is 0.18%. In addition, the viability, T/C runs as follows: (second compound 0.316 µM, first compound 0.00949 µM) 107%; (second compound 0.316 µM, first compound 0.03 µM) 105%; (second compound 0.316 µM, first compound 0.0949 µM) 103%; (second compound 0.316 µM, first compound 0.3 µM) 53.5%; (second compound 0.316 µM, first compound 0.949 µM) 3.47%; (second compound 0.316 µM, first compound 3 µM) 0.16%. The viability, T/C reads like this: (second compound 1 µM, first compound 0.00949 µM) 106%; (second compound 1 µM, first compound 0.03 µM) 107%; (second compound 1 µM, first compound 0.0949 µM) 100%; (second compound 1 µM, first compound 0.3 µM) 46.9%; (second compound 1 µM, first compound 0.949 µM) 3.81%; (second compound 1 µM, first compound 3 µM) 0.17%. Moreover, the viability, T/C by setting is: (second compound 3.16 µM, first compound 0.00949 µM) 105%; (second compound 3.16 µM, first compound 0.03 µM) 107%; (second compound 3.16 µM, first compound 0.0949 µM) 93.2%; (second compound 3.16 µM, first compound 0.3 µM) 35.6%; (second compound 3.16 µM, first compound 0.949 µM) 4.43%; (second compound 3.16 µM, first compound 3 µM) 1.18%. Moreover, the viability, T/C by setting is: (second compound 10 µM, first compound 0.00949 µM) 92.5%; (second compound 10 µM, first compound 0.03 µM) 83.8%; (second compound 10 µM, first compound 0.0949 µM) 39.9%; (second compound 10 µM, first compound 0.3 µM) 14.1%; (second compound 10 µM, first compound 0.949 µM) 2.97%; (second compound 10 µM, first compound 3 µM) 0.24%.
